Reference: ChEMBL document CHEMBL1126612, “Synthesis and pharmacological evaluation of hexahydrofluorenamines as noncompetitive antagonists at the N-methyl-D-aspartate receptor” (J Med Chem, 1993)

Tests used:
Glutamate NMDA receptor [1] = experiment: Evaluated for their affinity at the PCP site for displacement of [3H]TCP in rat brain homogenates; format: tissue-based
Mus musculus = experiment: Compound was evaluated for in vivo activity assessed by prevention of NMDA-induced lethality in mice (N= 10 animals); format: functional
Rattus norvegicus [2] = species on record: Rattus norvegicus; experiment: Compound was evaluated for the inhibition of glutamate-stimulated calcium influx (GSCI); (N=1); format: functional
[3] = Partition coefficient determined using standard shake flask method at pH 7.4.; format: physicochemical; conditions: octanol/water
[4] = biological target: Glutamate NMDA receptor (Rattus norvegicus) (UniProt P35439+Q00959+Q00960+Q00961+Q62645+Q8VHN2+Q9R1M7); experiment: (§1) Percent inhibition at the PCP site for displacement of [3H]TCP in rat brain homogenates at […]; format: tissue-based
Rattus norvegicus [5] = species on record: Rattus norvegicus; experiment: Compound was evaluated for the inhibition of glutamate-stimulated calcium influx (GSCI); format: functional
Glutamate NMDA receptor [6] = experiment: as §1; format: tissue-based

| Structure (SMILES) | IC50 (Glutamate NMDA receptor [1]) [nM] | ED50 (Mus musculus) [mg/kg] | logD [3] | inhibition [4] [%] | other results |
| --- | --- | --- | --- | --- | --- |
| CNC12CCCCC1Cc1ccc(O)cc12 (centres undefined) | 16.5 | 0.99 | – | – | IC50 (Rattus norvegicus [2]): 140 nM |
| C=C1c2ccccc2C2(NC)CCCCC12 (centres undefined) | 528 | – | 0.76 | – | – |
| NC12CCC(CO)CC1Cc1ccccc12 (centres undefined) | 253 | – | 0.86 | – | – |
| CC[C@]1(c2ccccc2)OC[C@H]([C@@H]2CCCCN2)O1 [ETOXADROL] | 107 | – | – | – | – |
| C=C1c2ccccc2C2(N)CCCCC12 (centres undefined) | – | – | – | 4 | – |
| CNC12CCC(C)CC1Cc1ccccc12 (centres undefined) | 95 | – | – | – | – |
| CN[C@@]12CC[C@@H](CN)C[C@@H]1Cc1ccccc12 | 1.84 | – | -1.42 | – | IC50 (Rattus norvegicus [2]): 765000 nM |
| CNC12CCC(CO)CC1Cc1ccccc12 (centres undefined) | 3940 | – | 0.17 | – | – |
| N[C@]12CCCC[C@H]1Cc1ccccc12 | 13.4 | 0.61 | – | – | IC50 (Rattus norvegicus [5]): 510 nM |
| CNC12CCCC1Cc1ccccc12 (centres undefined) | 350 | – | – | – | – |
| CCN[C@]12CCCC[C@H]1Cc1ccccc12 | 55.2 | 0.2 | – | – | IC50 (Rattus norvegicus [2]): 61 nM |
| CN[C@@]12CCCC[C@@H]1Cc1ccccc12 | 107 | 10 | 0.43 | – | IC50 (Rattus norvegicus [5]): 2550 nM |
| NCC12CCCCC1c1ccccc1C2 (centres undefined) | – | – | – | 1 | – |
| CNC[C@@H]1CC[C@@]2(NC)c3ccccc3C[C@H]2C1 | – | – | -2.65 | 0 | – |
| NC12CCCC1Cc1ccccc12 (centres undefined) | – | – | -0.28 | – | IC50 (Glutamate NMDA receptor [6]): 5 nM |
| CN[C@@]12CCCC[C@@H]1Cc1ccccc12.CN[C@]12CCCC[C@H]1Cc1ccccc12 | 30 | 0.58 | 0.54 | – | IC50 (Rattus norvegicus [5]): 100 nM |
| CNC12CCCCC1Cc1ccsc12 (centres undefined) | 66 | 1.1 | – | – | – |
| CC1CCCC2Cc3ccccc3C12N (centres undefined) | 159 | – | – | – | – |

| Structure (SMILES) | IC50 (Glutamate NMDA receptor [1]) [nM] | ED50 (Mus musculus) [mg/kg] | logD [3] | inhibition [4] [%] | other results |
| --- | --- | --- | --- | --- | --- |
| NC12CCCCC1c1ccccc1C2 (centres undefined) | – | – | 0.3 | 0 | – |
| CN[C@]12CCCC[C@H]1Cc1ccccc12 | 9.9 | 0.1 | 0.33 | – | IC50 (Rattus norvegicus [5]): 120 nM |
| c1ccc(CNC23CCCCCC2Cc2ccccc23)cc1 (centres undefined) | – | – | – | 6 | – |
| CNC12CCCCC1c1ccccc1C2 (centres undefined) | – | – | 0.62 | 0 | – |
| c1ccc(CNC23CCCCC2Cc2ccsc23)cc1 (centres undefined) | – | – | – | 10 | – |
| NC12CCCCCC1Cc1ccccc12 (centres undefined) | 304 | – | – | – | – |
| CNC12CCCCC1Sc1ccccc12 (centres undefined) | 11.3 | 0.41 | – | – | IC50 (Rattus norvegicus [2]): 210 nM |
| CNCC12CCCCC1c1ccccc1C2 (centres undefined) | – | – | – | 0 | – |
| CCNC12CCCCC1Cc1c(C)cccc12 (centres undefined) | 323 | – | – | – | – |
| c1ccc(CNC23CCCC2Cc2ccccc23)cc1 (centres undefined) | – | – | – | 4 | – |
| CNC12CC=CCC1c1ccccc1C2 (centres undefined) | – | – | 0.04 | 0 | – |
| CNC12c3ccccc3CC1CCCC2C (centres undefined) | 79 | 0.8 | – | – | IC50 (Rattus norvegicus [2]): 390 nM |
| CCNC12CCCCC1Oc1ccccc12 (centres undefined) | 141 | 1.5 | – | – | IC50 (Rattus norvegicus [2]): 1800 nM |
| CNC12CCCCC1Cc1cc(OC)ccc12 (centres undefined) | – | – | 0.21 | 11 | – |
| C[C@]12N[C@H](Cc3ccccc31)c1ccccc12 [DIZOCILPINE] | – | 0.22 | 2.1 | – | IC50 (Rattus norvegicus [5]): 54 nM |
| c1ccc(C2(N3CCCCC3)CCCCC2)cc1 [PHENCYCLIDINE] | 36.5 | 0.55 | 3.63 | – | IC50 (Rattus norvegicus [5]): 200 nM |
| CNC12CCCCCC1Cc1ccccc12 (centres undefined) | 113 | – | 0.66 | – | IC50 (Rattus norvegicus [2]): 1200 nM |
| CNC12CCCCC1Cc1ccc(OC)cc12 (centres undefined) | 22 | 0.51 | 0.65 | – | IC50 (Rattus norvegicus [2]): 160 nM |
